US20230150974A1 (Foghorn Therapeutics Inc., priority 2020, published 2023)

Experiments:
[1] = biological target: T1, HiBiT-BRM (Homo sapiens, UniProt P51531); test: HiBiT-BRM cell-based degradation assay (Nano-Glo HiBiT Lytic Detection); settings: HeLa cells expressing HiBiT-BRM, 24 h; for DC50: read-out: BRM HiBit Degradation IC50
T1 construct: expressed in transfected cells
In short: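 HeLa cells stably expressing HiBiT-tagged BRM were treated for 24 h, then lysed with LgBiT-containing Nano-Glo reagent and luminescence read. % degradation scaled between DMSO (high control) and 2 μM reference BRM/BRG1 degrader (low control).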

[2] = biological target: T2, HiBit-BRG1 (Homo sapiens, UniProt P51532); test: HiBit-BRG1 cell-based degradation assay (Nano-Glo HiBiT Lytic Detection); settings: HeLa cells expressing HiBit-BRG1 and LgBit, 24 h; for DC50: read-out: BRG1 HiBit Degradation IC50; for Dmax: read-out: BRG1 HiBit Degradation Maximum (%)
T2 construct: expressed in transfected cells
T2 sequence (P51532 whole entry): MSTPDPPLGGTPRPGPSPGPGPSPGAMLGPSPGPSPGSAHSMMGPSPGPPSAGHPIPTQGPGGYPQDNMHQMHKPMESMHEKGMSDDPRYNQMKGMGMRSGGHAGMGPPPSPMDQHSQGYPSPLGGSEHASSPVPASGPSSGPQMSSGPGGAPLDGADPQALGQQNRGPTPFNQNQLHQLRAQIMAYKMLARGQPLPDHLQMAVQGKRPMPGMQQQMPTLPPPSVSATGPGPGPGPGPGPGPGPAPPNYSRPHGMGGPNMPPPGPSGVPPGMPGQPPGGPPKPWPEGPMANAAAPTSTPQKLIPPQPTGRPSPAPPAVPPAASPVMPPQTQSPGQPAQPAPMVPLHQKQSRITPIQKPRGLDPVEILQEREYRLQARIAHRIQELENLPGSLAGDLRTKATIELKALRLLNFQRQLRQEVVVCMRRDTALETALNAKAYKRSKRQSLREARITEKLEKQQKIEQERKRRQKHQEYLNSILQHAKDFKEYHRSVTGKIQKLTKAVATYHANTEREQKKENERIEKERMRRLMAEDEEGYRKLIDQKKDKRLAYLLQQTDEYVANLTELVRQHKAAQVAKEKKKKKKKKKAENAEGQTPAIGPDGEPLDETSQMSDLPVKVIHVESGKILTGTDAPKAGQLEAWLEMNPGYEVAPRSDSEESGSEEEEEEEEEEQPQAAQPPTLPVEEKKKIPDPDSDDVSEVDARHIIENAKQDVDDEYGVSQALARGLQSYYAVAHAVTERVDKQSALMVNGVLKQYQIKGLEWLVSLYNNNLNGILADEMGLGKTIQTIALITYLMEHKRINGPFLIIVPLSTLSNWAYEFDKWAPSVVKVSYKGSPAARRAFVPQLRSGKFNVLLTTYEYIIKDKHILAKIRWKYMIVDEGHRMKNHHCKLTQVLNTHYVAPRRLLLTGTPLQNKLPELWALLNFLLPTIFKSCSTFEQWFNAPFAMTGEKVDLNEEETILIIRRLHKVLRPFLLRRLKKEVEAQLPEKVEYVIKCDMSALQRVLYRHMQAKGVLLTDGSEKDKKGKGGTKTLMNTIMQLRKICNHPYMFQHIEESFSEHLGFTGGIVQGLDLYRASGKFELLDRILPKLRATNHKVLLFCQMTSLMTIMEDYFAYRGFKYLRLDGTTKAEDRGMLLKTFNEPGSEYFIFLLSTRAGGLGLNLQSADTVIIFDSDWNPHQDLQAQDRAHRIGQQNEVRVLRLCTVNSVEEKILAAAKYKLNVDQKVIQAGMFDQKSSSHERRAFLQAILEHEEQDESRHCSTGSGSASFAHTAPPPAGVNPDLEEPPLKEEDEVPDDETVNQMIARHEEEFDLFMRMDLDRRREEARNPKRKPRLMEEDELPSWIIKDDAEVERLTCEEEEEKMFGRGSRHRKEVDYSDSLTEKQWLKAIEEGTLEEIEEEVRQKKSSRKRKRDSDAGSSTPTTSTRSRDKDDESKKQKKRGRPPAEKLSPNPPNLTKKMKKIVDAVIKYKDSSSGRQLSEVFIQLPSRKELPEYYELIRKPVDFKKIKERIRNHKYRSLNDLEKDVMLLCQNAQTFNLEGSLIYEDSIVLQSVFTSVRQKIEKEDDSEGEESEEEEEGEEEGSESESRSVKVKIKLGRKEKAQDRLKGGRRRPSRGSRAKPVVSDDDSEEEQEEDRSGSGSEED
In short: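 Seed 5000 HeLa HiBit-BRG1/LgBit cells per well; treat 24 h; equilibrate 15 min at room temperature; add Nano-Glo HiBiT lytic reagent, shake 10 min, read luminescence. Percent degradation is scaled between DMSO and 2 μM reference degrader wells.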

T1 sequence (P51531 whole entry): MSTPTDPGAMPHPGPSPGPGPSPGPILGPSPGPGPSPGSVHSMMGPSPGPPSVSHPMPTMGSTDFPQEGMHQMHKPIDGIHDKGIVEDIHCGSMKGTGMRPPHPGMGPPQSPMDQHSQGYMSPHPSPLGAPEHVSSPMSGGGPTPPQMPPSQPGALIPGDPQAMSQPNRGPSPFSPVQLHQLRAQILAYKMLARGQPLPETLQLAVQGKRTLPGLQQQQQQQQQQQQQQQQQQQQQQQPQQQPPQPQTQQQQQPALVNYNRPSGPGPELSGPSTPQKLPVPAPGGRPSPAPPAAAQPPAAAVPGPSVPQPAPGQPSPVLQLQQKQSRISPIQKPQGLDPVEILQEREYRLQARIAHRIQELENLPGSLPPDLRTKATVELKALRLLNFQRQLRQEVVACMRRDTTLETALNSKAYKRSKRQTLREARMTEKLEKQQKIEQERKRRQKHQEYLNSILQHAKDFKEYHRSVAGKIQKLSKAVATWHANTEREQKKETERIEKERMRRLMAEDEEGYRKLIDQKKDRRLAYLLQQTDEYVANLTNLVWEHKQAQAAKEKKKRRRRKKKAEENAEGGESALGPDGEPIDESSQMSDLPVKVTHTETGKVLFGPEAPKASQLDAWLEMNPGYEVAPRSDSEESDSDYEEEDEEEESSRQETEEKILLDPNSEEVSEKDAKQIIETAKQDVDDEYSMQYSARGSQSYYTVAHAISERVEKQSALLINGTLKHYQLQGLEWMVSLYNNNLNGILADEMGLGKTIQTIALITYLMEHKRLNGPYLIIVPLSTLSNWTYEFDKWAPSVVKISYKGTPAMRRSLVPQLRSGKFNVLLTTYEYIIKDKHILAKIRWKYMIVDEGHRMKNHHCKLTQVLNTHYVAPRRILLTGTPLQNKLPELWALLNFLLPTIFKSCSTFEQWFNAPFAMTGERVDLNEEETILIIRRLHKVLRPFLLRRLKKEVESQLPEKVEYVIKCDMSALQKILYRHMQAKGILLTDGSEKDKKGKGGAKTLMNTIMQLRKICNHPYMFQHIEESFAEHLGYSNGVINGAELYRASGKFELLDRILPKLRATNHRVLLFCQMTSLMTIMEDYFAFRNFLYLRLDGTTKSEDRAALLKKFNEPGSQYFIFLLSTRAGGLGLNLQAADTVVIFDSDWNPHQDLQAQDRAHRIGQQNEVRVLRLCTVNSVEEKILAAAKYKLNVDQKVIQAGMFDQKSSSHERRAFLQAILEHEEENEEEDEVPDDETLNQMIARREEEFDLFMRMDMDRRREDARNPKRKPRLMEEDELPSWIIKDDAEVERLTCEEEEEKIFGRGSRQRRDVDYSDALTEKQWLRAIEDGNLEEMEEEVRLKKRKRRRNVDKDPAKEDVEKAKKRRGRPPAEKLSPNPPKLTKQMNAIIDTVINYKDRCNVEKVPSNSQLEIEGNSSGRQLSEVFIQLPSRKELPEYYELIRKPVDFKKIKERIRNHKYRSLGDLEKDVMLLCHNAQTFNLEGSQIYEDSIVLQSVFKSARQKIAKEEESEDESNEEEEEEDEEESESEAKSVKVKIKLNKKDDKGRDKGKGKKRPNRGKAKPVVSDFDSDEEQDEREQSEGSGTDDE

| Structure (SMILES) | DC50 [1] | DC50 [2] | Dmax [2] | BRM HiBit Degradation Maximum (%) [1] |
| --- | --- | --- | --- | --- |
| Nc1nnc(-c2ccccc2O)cc1OCCc1ccc(C(=O)NCCCCCCCCCCCC(=O)NCc2ccc(S(=O)(=O)Nc3cccc4c(Cl)c[nH]c34)cc2)cc1 [Compound 22, 12-[[4-(2-[[3-amino-6-(2-hydroxyphenyl)pyridazin-4-yl]oxy]ethyl)phenyl]formamido]-N-([4-[(3-chloro-1H-indol-7-yl)sulfamoyl]phenyl]methyl)dodecanamide] | > 1000 nM | > 1000 nM | < 50% | C (“C” indicates maximum degradation <50%) |
| Nc1nnc(-c2ccccc2O)cc1OCCc1ccc(CNC(=O)CCCCNc2ccc3c(c2)C(=O)N(C2CCC(=O)NC2=O)C3=O)cc1 (stereo not drawn) [Compound 154, N-(4-(2-((3-amino-6-(2-hydroxyphenyl)pyridazin-4-yl)oxy)ethyl)benzyl)-5-((2-(2,6-dioxopiperidin-3-yl)-1,3-dioxoisoindolin-5-yl)amino)pentanamide] | > 1000 nM | > 1000 nM | < 50% | C (“C” indicates maximum degradation <50%) |
| Cc1ncsc1-c1ccc([C@H](C)NC(=O)[C@@H]2C[C@@H](O)CN2C(=O)[C@@H](c2cc(OCCN3CC(C4CCN(C(=O)c5ccc(CCOc6cc(-c7ccccc7O)nnc6N)cc5)CC4)C3)no2)C(C)C)cc1 [Compound 211, (2S,4R)-1-[(2R)-2-[3-[2-(3-[1-[4-(2-[[3-amino-6-(2-hydroxyphenyl)pyridazin-4-yl]oxy]ethyl)benzoyl]piperidin-4-yl]azetidin-1-yl)ethoxy]-1,2-oxazol-5-yl]-3-methylbutanoyl]-4-hydroxy-N-[(1S)-1-[4-(4-methyl-1,3-thiazol-5-yl)phenyl]ethyl]pyrrolidine-2-carboxamide] | > 10 nM | > 1000 nM | > 50% | A (“A” indicates maximum degradation ≥75%) |
| Nc1nnc(-c2ccccc2O)cc1NCCc1ccc(CNC(=O)CCCCOc2cccc3c2C(=O)N(C2CCC(=O)NC2=O)C3=O)cc1 (stereo not drawn) [Compound 147, N-(4-(2-((3-amino-6-(2-hydroxyphenyl)pyridazin-4-yl)amino)ethyl)benzyl)-5-((2-(2,6-dioxopiperidin-3-yl)-1,3-dioxoisoindolin-4-yl)oxy)pentanamide] | > 1000 nM | > 1000 nM | < 50% | C (“C” indicates maximum degradation <50%) |
| Cc1ncsc1-c1ccc(CNC(=O)[C@@H]2C[C@@H](O)CN2C(=O)[C@@H](NC(=O)CN2CCN(CCOc3cc(N4[C@@H]5CC[C@H]4CN(c4cc(-c6ccccc6O)nnc4N)C5)ccn3)CC2)C(C)(C)C)cc1 [Compound 233, (2S,4R)-1-((2S)-2-(2-(4-(2-((4-(3-(3-amino-6-(2-hydroxyphenyl)pyridazin-4-yl)-3,8-diazabicyclo[3.2.1]octan-8-yl)pyridin-2-yl)oxy)ethyl)piperazin-1-yl)acetamido)-3,3-dimethylbutanoyl)-4-hydroxy-N-(4-(4-methylthiazol-5-yl)benzyl)pyrrolidine-2-carboxamide] | > 10 nM | > 100 nM | > 75% | A (“A” indicates maximum degradation ≥75%) |
| Cc1nc2cccc(NCCOCCOCCNC(=O)c3ccc(CCOc4cc(-c5ccccc5O)nnc4N)cc3)c2c(=O)n1C1CCC(=O)NC1=O (stereo not drawn) [Compound 48, 4-(2-[[3-amino-6-(2-hydroxyphenyl)pyridazin-4-yl]oxy]ethyl)-N-[2-[2-(2-[[3-(2,6-dioxopiperidin-3-yl)-2-methyl-4-oxoquinazolin-5-yl]amino]ethoxy)ethoxy]ethyl]benzamide] | > 1000 nM | > 1000 nM | < 50% | C (“C” indicates maximum degradation <50%) |

Now from value to molecule, other results behind:

| DC50 [1] | DC50 [2] | Dmax [2] | Structure (SMILES) | BRM HiBit Degradation Maximum (%) [1] |
| --- | --- | --- | --- | --- |
| > 1000 nM | > 1000 nM | < 50% | Nc1nnc(-c2ccccc2O)cc1N1CCN(CC(=O)NCCCCCCCCNc2cccc3c2C(=O)N(C2CCC(=O)NC2=O)C3=O)CC1 (stereo not drawn) [Compound 95, 2-(4-(3-amino-6-(2-hydroxyphenyl)pyridazin-4-yl)piperazin-1-yl)-N-(8-((2-(2,6-dioxopiperidin-3-yl)-1,3-dioxoisoindolin-4-yl)amino)octyl)acetamide] | C (“C” indicates maximum degradation <50%) |
| > 1000 nM | > 1000 nM | < 50% | Cc1ncsc1-c1ccc([C@H](C)NC(=O)[C@@H]2C[C@@H](O)CN2C(=O)[C@@H](NC(=O)CCN2CCC(OC3CCN(CCC(=O)NCc4ccc(CCOc5cc(-c6ccccc6O)nnc5N)cc4)CC3)CC2)C(C)(C)C)cc1 [Compound 249, (2S,4R)-1-((S)-2-(3-(4-((1-(3-((4-(2-((3-amino-6-(2-hydroxyphenyl)pyridazin-4-yl)oxy)ethyl)benzyl)amino)-3-oxopropyl)piperidin-4-yl)oxy)piperidin-1-yl)propanamido)-3,3-dimethylbutanoyl)-4-hydroxy-N-((S)-1-(4-(4-methylthiazol-5-yl)phenyl)ethyl)pyrrolidine-2-carboxamide] | A (“A” indicates maximum degradation ≥75%) |
| > 1000 nM | > 1000 nM | < 50% | Cc1ncsc1-c1ccc(CNC(=O)[C@@H]2C[C@@H](O)CN2C(=O)[C@@H](NC(=O)COCC(=O)NCc2ccc(CCOc3cc(-c4ccccc4O)nnc3N)cc2)C(C)(C)C)cc1 [Compound 165, (2S,4R)-1-((S)-2-(2-(2-((4-(2-((3-amino-6-(2-hydroxyphenyl)pyridazin-4-yl)oxy)ethyl)benzyl)amino)-2-oxoethoxy)acetamido)-3,3-dimethylbutanoyl)-4-hydroxy-N-(4-(4-methylthiazol-5-yl)benzyl)pyrrolidine-2-carboxamide] | A (“A” indicates maximum degradation ≥75%) |
| > 1000 nM | > 1000 nM | < 50% | CN(CCNC(=O)COc1cccc2c1C(=O)N(C1CCC(=O)NC1=O)C2=O)CCNC(=O)CN1CCN(c2cc(-c3ccccc3O)nnc2N)CC1 (stereo not drawn) [Compound 104, N-(2-[[2-(2-[4-[3-amino-6-(2-hydroxyphenyl)pyridazin-4-yl]piperazin-1-yl]acetamido)ethyl](methyl)amino]ethyl)-2-[[2-(2,6-dioxopiperidin-3-yl)-1,3-dioxo-2,3-dihydro-1H-isoindol-4-yl]oxy]acetamide] | C (“C” indicates maximum degradation <50%) |
| > 1000 nM | > 1000 nM | < 50% | Nc1nnc(-c2ccccc2O)cc1N1CCN(CCNC(=O)CCCCCCCCCCNc2ccc3c(c2)C(=O)N(C2CCC(=O)NC2=O)C3=O)CC1 (stereo not drawn) [Compound 99, N-(2-[4-[3-amino-6-(2-hydroxyphenyl)pyridazin-4-yl]piperazin-1-yl]ethyl)-11-[[2-(2,6-dioxopiperidin-3-yl)-1,3-dioxo-2,3-dihydro-1H-isoindol-5-yl]amino]undecanamide] | C (“C” indicates maximum degradation <50%) |
| > 10 nM | > 1000 nM | < 50% | Cc1ncsc1-c1ccc([C@H](C)NC(=O)[C@@H]2C[C@@H](O)CN2C(=O)[C@@H](NC(=O)CCCCCCCCCCCCCC(=O)NCc2ccc(CCOc3cc(-c4ccccc4O)nnc3N)cc2)C(C)C)cc1 [Compound 246, N1-(4-(2-((3-amino-6-(2-hydroxyphenyl)pyridazin-4-yl)oxy)ethyl)benzyl)-N15-((S)-1-((2S,4R)-4-hydroxy-2-(((S)-1-(4-(4-methylthiazol-5-yl)phenyl)ethyl)carbamoyl)pyrrolidin-1-yl)-3-methyl-1-oxobutan-2-yl)pentadecanediamide] | A (“A” indicates maximum degradation ≥75%) |
| > 1000 nM | > 1000 nM | < 50% | Cc1nc2cccc(NCCCCCCNC(=O)c3ccc(CCOc4cc(-c5ccccc5O)nnc4N)cc3)c2c(=O)n1C1CCC(=O)NC1=O (stereo not drawn) [Compound 52, 4-(2-[[3-amino-6-(2-hydroxyphenyl)pyridazin-4-yl]oxy]ethyl)-N-(6-[[3-(2,6-dioxopiperidin-3-yl)-2-methyl-4-oxoquinazolin-5-yl]amino]hexyl)benzamide] | C (“C” indicates maximum degradation <50%) |
| > 100 nM | > 1000 nM | > 50% | Cc1ncsc1-c1ccc(CNC(=O)[C@@H]2C[C@@H](O)CN2C(=O)[C@@H](NC(=O)CCCCCCCCCNCc2ccc(CCNc3cc(-c4ccccc4O)nnc3N)cc2)C(C)(C)C)cc1 [Compound 139, (2S,4R)-1-((S)-2-(10-((4-(2-((3-amino-6-(2-hydroxyphenyl)pyridazin-4-yl)amino)ethyl)benzyl)amino)decanamido)-3,3-dimethylbutanoyl)-4-hydroxy-N-(4-(4-methylthiazol-5-yl)benzyl)pyrrolidine-2-carboxamide] | A (“A” indicates maximum degradation ≥75%) |
| > 1000 nM | > 1000 nM | < 50% | Cc1ncsc1-c1ccc(CNC(=O)[C@@H]2C[C@@H](O)CN2C(=O)[C@@H](NC(=O)CCN2CC3CN(C(=O)c4ccc(CCOc5cc(-c6ccccc6O)nnc5N)cc4)C3C2)C(C)(C)C)cc1 (stereo partly drawn) [Compound 241, (2S,4R)-1-((2S)-2-(3-(6-(4-(2-((3-amino-6-(2-hydroxyphenyl)pyridazin-4-yl)oxy)ethyl)benzoyl)-3,6-diazabicyclo[3.2.0]heptan-3-yl)propanamido)-3,3-dimethylbutanoyl)-4-hydroxy-N-(4-(4-methylthiazol-5-yl)benzyl)pyrrolidine-2-carboxamide] | C (“C” indicates maximum degradation <50%) |
